Measured values as given in article PMC9487510, “A Novel Oral GyrB/ParE Dual Binding Inhibitor Effective against Multidrug-Resistant Neisseria gonorrhoeae and Other High-Threat Pathogens” (Antimicrobial Agents and Chemotherapy, 2022).
Converted amounts (≈) assume the structure as drawn. Like-named read-outs stand apart in the source and are kept apart here.

Test system: N. gonorrhoeae clinical isolates
Assay: MIC, agar dilution (CLSI)
Format: cell-based, Neisseria gonorrhoeae
Conditions: for MIC: read-out: MIC

MIC range (96 clinical isolates): <0.002 to 0.125 µg/mL
MIC (Neisseria gonorrhoeae, strain CDC1 (GCREF2012 016)): 0.031 µg/mL (≈ 0.0559 µM)
MIC (Neisseria gonorrhoeae, strain CDC2 (GCREF2012 045)): 0.031 µg/mL (≈ 0.0559 µM)
MIC (Neisseria gonorrhoeae, strain CDC3 (GCREF2013 013)): 0.031 µg/mL (≈ 0.0559 µM)
MIC (Neisseria gonorrhoeae, strain CDC4 (GCREF2013 030)): 0.031 µg/mL (≈ 0.0559 µM)
MIC (Neisseria gonorrhoeae, strain CDC5 (GCREF2012 001)): 0.063 µg/mL (≈ 0.114 µM)
MIC (Neisseria gonorrhoeae, strain CDC6 (GCREF2012 002)): 0.063 µg/mL (≈ 0.114 µM)
MIC (Neisseria gonorrhoeae, strain CDC8 (GCREF2012 004)): 0.016 µg/mL (≈ 0.0289 µM)
MIC (Neisseria gonorrhoeae, strain CDC9 (GCREF2012 005)): 0.031 µg/mL (≈ 0.0559 µM)
MIC (Neisseria gonorrhoeae, strain CDC10 (GCREF2012 006)): 0.031 µg/mL (≈ 0.0559 µM)
MIC (Neisseria gonorrhoeae, strain CDC11 (GCREF2012 007)): 0.031 µg/mL (≈ 0.0559 µM)
MIC (Neisseria gonorrhoeae, strain CDC12 (GCREF2012 008)): 0.031 µg/mL (≈ 0.0559 µM)
MIC (Neisseria gonorrhoeae, strain CDC13 (GCREF2012 009)): 0.031 µg/mL (≈ 0.0559 µM)
MIC (Neisseria gonorrhoeae, strain CDC14 (GCREF2012 010)): 0.031 µg/mL (≈ 0.0559 µM)
MIC (Neisseria gonorrhoeae, strain CDC15 (GCREF2012 011)): 0.008 µg/mL (≈ 0.0144 µM)
MIC (Neisseria gonorrhoeae, strain CDC16 (GCREF2012 012)): 0.063 µg/mL (≈ 0.114 µM)
MIC (Neisseria gonorrhoeae, strain CDC18 (GCREF2012 014)): 0.063 µg/mL (≈ 0.114 µM)
MIC (Neisseria gonorrhoeae, strain CDC19 (GCREF2012 015)): 0.008 µg/mL (≈ 0.0144 µM)
MIC (Neisseria gonorrhoeae, strain CDC20 (GCREF2012 017)): 0.063 µg/mL (≈ 0.114 µM)
MIC (Neisseria gonorrhoeae, strain CDC21 (GCREF2012 018)): 0.031 µg/mL (≈ 0.0559 µM)
MIC (Neisseria gonorrhoeae, strain CDC22 (GCREF2012 019)): 0.008 µg/mL (≈ 0.0144 µM)
MIC (Neisseria gonorrhoeae, strain CDC23 (GCREF2012 020)): 0.031 µg/mL (≈ 0.0559 µM)
MIC (Neisseria gonorrhoeae, strain CDC24 (GCREF2012 021)): 0.063 µg/mL (≈ 0.114 µM)
MIC (Neisseria gonorrhoeae, strain CDC25 (GCREF2012 022)): 0.031 µg/mL (≈ 0.0559 µM)
MIC (Neisseria gonorrhoeae, strain CDC26 (GCREF2012 023)): 0.031 µg/mL (≈ 0.0559 µM)
MIC (Neisseria gonorrhoeae, strain CDC27 (GCREF2012 024)): 0.031 µg/mL (≈ 0.0559 µM)
MIC (Neisseria gonorrhoeae, strain CDC28 (GCREF2012 025)): 0.031 µg/mL (≈ 0.0559 µM)
MIC (Neisseria gonorrhoeae, strain CDC29 (GCREF2012 026)): 0.016 µg/mL (≈ 0.0289 µM)
MIC (Neisseria gonorrhoeae, strain CDC30 (GCREF2012 027)): 0.031 µg/mL (≈ 0.0559 µM)
MIC (Neisseria gonorrhoeae, strain CDC31 (GCREF2012 028)): 0.031 µg/mL (≈ 0.0559 µM)
MIC (Neisseria gonorrhoeae, strain CDC32 (GCREF2012 029)): 0.063 µg/mL (≈ 0.114 µM)
MIC (Neisseria gonorrhoeae, strain CDC33 (GCREF2012 030)): 0.125 µg/mL (≈ 0.225 µM)
MIC (Neisseria gonorrhoeae, strain CDC34 (GCREF2012 031)): 0.125 µg/mL (≈ 0.225 µM)
MIC (Neisseria gonorrhoeae, strain CDC35 (GCREF2012 032)): 0.125 µg/mL (≈ 0.225 µM)
MIC (Neisseria gonorrhoeae, strain CDC36 (GCREF2012 033)): 0.031 µg/mL (≈ 0.0559 µM)
MIC (Neisseria gonorrhoeae, strain CDC37 (GCREF2012 034)): 0.031 µg/mL (≈ 0.0559 µM)
MIC (Neisseria gonorrhoeae, strain CDC38 (GCREF2012 035)): 0.031 µg/mL (≈ 0.0559 µM)
MIC (Neisseria gonorrhoeae, strain CDC39 (GCREF2012 036)): 0.031 µg/mL (≈ 0.0559 µM)
MIC (Neisseria gonorrhoeae, strain CDC40 (GCREF2012 037)): 0.031 µg/mL (≈ 0.0559 µM)
MIC (Neisseria gonorrhoeae, strain CDC41 (GCREF2012 038)): 0.031 µg/mL (≈ 0.0559 µM)
MIC (Neisseria gonorrhoeae, strain CDC42 (GCREF2012 039)): 0.031 µg/mL (≈ 0.0559 µM)
MIC (Neisseria gonorrhoeae, strain CDC43 (GCREF2012 040)): 0.031 µg/mL (≈ 0.0559 µM)
MIC (Neisseria gonorrhoeae, strain CDC45 (GCREF2012 042)): 0.125 µg/mL (≈ 0.225 µM)
MIC (Neisseria gonorrhoeae, strain CDC46 (GCREF2012 043)): 0.031 µg/mL (≈ 0.0559 µM)
MIC (Neisseria gonorrhoeae, strain CDC47 (GCREF2012 044)): 0.031 µg/mL (≈ 0.0559 µM)
MIC (Neisseria gonorrhoeae, strain CDC48 (GCREF2012 046)): 0.031 µg/mL (≈ 0.0559 µM)
MIC (Neisseria gonorrhoeae, strain CDC49 (GCREF2012 047)): 0.031 µg/mL (≈ 0.0559 µM)
MIC (Neisseria gonorrhoeae, strain CDC50 (GCREF2012 048)): 0.063 µg/mL (≈ 0.114 µM)
MIC (Neisseria gonorrhoeae, strain CDC51 (GCREF2012 049)): 0.008 µg/mL (≈ 0.0144 µM)
MIC (Neisseria gonorrhoeae, strain CDC52 (GCREF2012 050)): 0.008 µg/mL (≈ 0.0144 µM)
MIC (Neisseria gonorrhoeae, strain CDC53 (GCREF2012 051)): 0.004 µg/mL (≈ 0.00721 µM)
MIC (Neisseria gonorrhoeae, strain CDC54 (GCREF2012 052)): 0.004 µg/mL (≈ 0.00721 µM)
MIC (Neisseria gonorrhoeae, strain CDC55 (GCREF2013 001)): 0.031 µg/mL (≈ 0.0559 µM)
MIC (Neisseria gonorrhoeae, strain CDC56 (GCREF2013 002)): 0.016 µg/mL (≈ 0.0289 µM)
MIC (Neisseria gonorrhoeae, strain CDC57 (GCREF2013 003)): 0.004 µg/mL (≈ 0.00721 µM)
MIC (Neisseria gonorrhoeae, strain CDC58 (GCREF2013 004)): 0.004 µg/mL (≈ 0.00721 µM)
MIC (Neisseria gonorrhoeae, strain CDC59 (GCREF2013 044)): 0.004 µg/mL (≈ 0.00721 µM)
MIC (Neisseria gonorrhoeae, strain CDC60 (GCREF2013 005)): 0.031 µg/mL (≈ 0.0559 µM)
MIC (Neisseria gonorrhoeae, strain CDC61 (GCREF2013 006)): 0.031 µg/mL (≈ 0.0559 µM)
MIC (Neisseria gonorrhoeae, strain CDC62 (GCREF2013 007)): 0.008 µg/mL (≈ 0.0144 µM)
MIC (Neisseria gonorrhoeae, strain CDC64 (GCREF2013 009)): 0.008 µg/mL (≈ 0.0144 µM)
MIC (Neisseria gonorrhoeae, strain CDC65 (GCREF2013 010)): 0.016 µg/mL (≈ 0.0289 µM)
MIC (Neisseria gonorrhoeae, strain CDC66 (GCREF2013 011)): 0.008 µg/mL (≈ 0.0144 µM)
MIC (Neisseria gonorrhoeae, strain CDC67 (GCREF2013 014)): 0.008 µg/mL (≈ 0.0144 µM)
MIC (Neisseria gonorrhoeae, strain CDC68 (GCREF2013 016)): 0.016 µg/mL (≈ 0.0289 µM)
MIC (Neisseria gonorrhoeae, strain CDC69 (GCREF2013 017)): 0.031 µg/mL (≈ 0.0559 µM)
MIC (Neisseria gonorrhoeae, strain CDC70 (GCREF2013 018)): 0.004 µg/mL (≈ 0.00721 µM)
MIC (Neisseria gonorrhoeae, strain CDC71 (GCREF2013 019)): 0.008 µg/mL (≈ 0.0144 µM)
MIC (Neisseria gonorrhoeae, strain CDC72 (GCREF2013 020)): 0.031 µg/mL (≈ 0.0559 µM)
MIC (Neisseria gonorrhoeae, strain CDC73 (GCREF2013 021)): 0.008 µg/mL (≈ 0.0144 µM)
MIC (Neisseria gonorrhoeae, strain CDC74 (GCREF2013 022)): 0.008 µg/mL (≈ 0.0144 µM)
MIC (Neisseria gonorrhoeae, strain CDC75 (GCREF2013 023)): 0.016 µg/mL (≈ 0.0289 µM)
MIC (Neisseria gonorrhoeae, strain CDC76 (GCREF2013 024)): 0.016 µg/mL (≈ 0.0289 µM)
MIC (Neisseria gonorrhoeae, strain CDC77 (GCREF2013 025)): 0.008 µg/mL (≈ 0.0144 µM)
MIC (Neisseria gonorrhoeae, strain CDC78 (GCREF2013 026)): 0.016 µg/mL (≈ 0.0289 µM)
MIC (Neisseria gonorrhoeae, strain CDC79 (GCREF2013 027)): 0.016 µg/mL (≈ 0.0289 µM)
MIC (Neisseria gonorrhoeae, strain CDC80 (GCREF2013 028)): 0.008 µg/mL (≈ 0.0144 µM)
MIC (Neisseria gonorrhoeae, strain CDC81 (GCREF2013 029)): 0.031 µg/mL (≈ 0.0559 µM)
MIC (Neisseria gonorrhoeae, strain CDC82 (GCREF2013 031)): 0.031 µg/mL (≈ 0.0559 µM)
MIC (Neisseria gonorrhoeae, strain CDC83 (GCREF2013 032)): 0.008 µg/mL (≈ 0.0144 µM)
MIC (Neisseria gonorrhoeae, strain CDC84 (GCREF2013 033)): 0.008 µg/mL (≈ 0.0144 µM)
MIC (Neisseria gonorrhoeae, strain CDC86 (GCREF2013 035)): 0.008 µg/mL (≈ 0.0144 µM)
MIC (Neisseria gonorrhoeae, strain CDC87 (GCREF2013 036)): 0.063 µg/mL (≈ 0.114 µM)
MIC (Neisseria gonorrhoeae, strain CDC88 (GCREF2013 037)): 0.031 µg/mL (≈ 0.0559 µM)
MIC (Neisseria gonorrhoeae, strain CDC89 (GCREF2013 038)): 0.008 µg/mL (≈ 0.0144 µM)
MIC (Neisseria gonorrhoeae, strain CDC90 (GCREF2013 039)): 0.031 µg/mL (≈ 0.0559 µM)
MIC (Neisseria gonorrhoeae, strain CDC91 (GCREF2013 040)): 0.125 µg/mL (≈ 0.225 µM)
MIC (Neisseria gonorrhoeae, strain CDC92 (GCREF2013 041)): 0.031 µg/mL (≈ 0.0559 µM)
MIC (Neisseria gonorrhoeae, strain CDC93 (GCREF2013 042)): 0.016 µg/mL (≈ 0.0289 µM)
MIC (Neisseria gonorrhoeae, strain CDC94 (GCREF2013 043)): 0.008 µg/mL (≈ 0.0144 µM)
MIC (Neisseria gonorrhoeae, strain CDC95 (GCREF2013 045)): 0.031 µg/mL (≈ 0.0559 µM)
MIC (Neisseria gonorrhoeae, strain CDC96 (GCREF2013 046)): 0.016 µg/mL (≈ 0.0289 µM)
MIC (Neisseria gonorrhoeae, strain CDC97 (GCREF2013 047)): 0.031 µg/mL (≈ 0.0559 µM)
MIC (Neisseria gonorrhoeae, strain CDC98 (GCREF2013 048)): 0.008 µg/mL (≈ 0.0144 µM)
MIC (Neisseria gonorrhoeae, strain CDC99 (GCREF2013 012)): 0.008 µg/mL (≈ 0.0144 µM)
MIC (Neisseria gonorrhoeae, strain CDC100 (GCREF2013 015)): 0.031 µg/mL (≈ 0.0559 µM)
MIC50 (Neisseria gonorrhoeae, 96 clinical isolates, read-out: MIC50): 0.031 µg/mL (≈ 0.0559 µM)
MIC90 (Neisseria gonorrhoeae, 96 clinical isolates, read-out: MIC90): 0.063 µg/mL (≈ 0.114 µM)
Compound: CO/N=C(\C(=O)N[C@@H]1C(=O)N2C(C(=O)O)=C(CSc3nc(=O)c(=O)[nH]n3C)CS[C@H]12)c1csc(N)n1 [Cro, ceftriaxone]
